Data reported in patent US10500274B2, “Methods for reducing viral load in HIV-1 infected patients” (CytoDyn Inc., priority 2008, dated 2019).
Where two headings read alike, the source gives them in different places.

Columns and labels:
[1] = system: HIV-1JR-FL envelope-mediated membrane fusion; assay: microbe, parasite or virus in culture; format: cell-based; design: CI90: unit not given beside the values
[2] = system: reporter viruses pseudotyped with HIV-1JR-FL envelope (U87-CD4-CCR5 cells); assay: microbe, parasite or virus in culture; format: cell-based; conditions: for IC50 / IC90: Human immunodeficiency virus 1, U87/CD4/CCR5
[3] = system: reporter viruses pseudotyped with HIV-1SF162 envelope (U87-CD4-CCR5 cells); assay: HIV-1 pseudovirus assay, SF162 envelope; format: cell-based; conditions: Human immunodeficiency virus 1, U87/CD4/CCR5
Text: A self-inactivating (SIN) vector was derived from the pNL4-3ΔEnv-luciferase vector (Dragic et al. 1996) by deleting 507 basepairs in the U3 region of the 3′ long terminal repeat (LTR) so as to remove the TATA box and transcription factor binding sites. The human cytomegalovirus promoter was inserted upstream of the luciferase (luc) gene to enable expression of luciferase following integration.
Reporter viruses pseudotyped with HIV-1JR-FL or HIV-15F162 envelopes were generated by cotransfection of 293T cells with the SIN vector and the appropriate pcDNA env-expressing vector as previously described (Dragic et al. 1996). U87-CD4-CCR5 cells (8,000/well; NIH AIDS Research and Reference Reagent Program) were infected with 125-375 pg of HIV-L pseudoviruses in 384-well plates in the presence or absence of inhibitor(s). Cultures were incubated for 72 h at 37° C. in DMEM containing 10% fetal bovine serum, […], 0.3 mg/mL geneticin, antibiotics, and 0.5% DMSO. Luciferase activity (relative light units or RLU) was measured using BrightGlo reagent (Promega, Madison, Wis.) according to the manufacturer's instructions.
Experimental design and data analysis were based on the combination index (CI) method (Chou et al. 1991; Chou et al. 1984). […] The mutually exclusive CI formula was used for combinations of CCR5 inhibitors, while the mutually non-exclusive formula was utilized for combinations of inhibitors to distinct targets (Chou et al. 1991). Each test was conducted 4-12 times. Synergy, additivity and antagonism are indicated by CI<1, CI=1 and CI>1, respectively.
In the Bonferroni correction, P=α/n, where n is the number of comparisons. Twenty-two synergy comparisons (11 compounds×2 CI values) were made based on data generated in the membrane fusion assay, resulting in a corrected P value of 0.0023.

HIV-1 = conditions: dose-dependent, treatment period of 10-14 days; cited from earlier work
CCR5 = CCR5 (Homo sapiens, UniProt P51681); conditions: cited from earlier work
Sequence of CCR5 (P51681 whole entry, the tested form may be a part): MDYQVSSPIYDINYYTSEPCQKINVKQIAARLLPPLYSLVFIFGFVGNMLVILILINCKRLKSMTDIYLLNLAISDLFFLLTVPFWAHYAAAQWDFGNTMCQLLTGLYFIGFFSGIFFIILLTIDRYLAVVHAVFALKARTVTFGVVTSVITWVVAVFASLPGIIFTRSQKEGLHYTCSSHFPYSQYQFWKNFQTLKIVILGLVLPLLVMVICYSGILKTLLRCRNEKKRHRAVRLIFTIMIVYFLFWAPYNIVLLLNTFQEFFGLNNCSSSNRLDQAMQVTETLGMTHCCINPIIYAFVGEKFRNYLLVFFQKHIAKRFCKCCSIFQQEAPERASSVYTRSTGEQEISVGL

[4] = system: HIV-1 Env-mediated fusion (HeLa-EnvJRFL with CEM NKR-CCR5 cells); assay: HIV-1 RET cell-cell fusion assay, combination testing (Part II); conditions: PRO 140 in combination with the labelled inhibitor, 1:1 molar ratio
Experimental: Serial dilutions of small molecules were conducted in DMSO. Subsequent dilutions were conducted in medium to achieve a final DMSO concentration in the assay of 0.5%. Peptides and mAbs were diluted in PBS in the absence of DMSO.
Briefly, fluorescein octadecyl ester (F18; Molecular Probes, Eugene, Oreg.; 5 mg/ml in ethanol), was diluted 1:800 in DMEM labeling medium (DMEM; Invitrogen, Carlsbad, Calif.) with 10% fetal bovine serum (FBS; HyClone, Logan, Utah) and adjusted to an A506 of 0.34±10%. […] Both dyes were further diluted 2-fold by addition to cells in T75-cm^2 flasks. HeLa-EnvJRFL and CEM NKR-CCR5 cells were incubated overnight in F18- and R18-containing culture medium, respectively. […] The plates were then read on a fluorescence plate reader (Victor^2, Perkin Elmer, Boston, Mass.) using the excitation/emission filter combinations shown in Table 6a. […]
IC50 values were generated for all combinations as described above. Combination Index (CI) and Dose Reduction (DR) values were calculated according to the following formulas:
Combinations with CI<1 are determined to be synergistic, whereas combinations with CI>1 are determined to be antagonistic. […]
In this assay, effector cells are labeled with the F18 dye and target cells with the R18 dye. […] Drug susceptibility is measured by adding serial concentrations of drugs to target cells prior to addition of effector cells. […]

[5] = Human immunodeficiency virus 1, 1st inhibitor alone

Molecule: COc1ccnc2[nH]cc(C(=O)C(=O)N3CCN(C(=O)c4ccccc4)C[C@H]3C)c12 [BMS-378806, (R)—N-(benzoyl)-3-methyl-N′-[(4-methoxy-7-azaindol-3-yl)-oxoacetyl]-piperazine]
- IC50 [1, 5]: 5.2 nM
- IC90 [1, 5]: 20 nM
- IC50 [2]: 1.2 nM
- IC90 [2]: 11 nM
- IC50 [3]: 0.03 nM
- IC90 [3]: 0.42 nM

Molecule: CCCCN1C(=O)[C@@H]([C@H](O)C2CCCCC2)NC(=O)C12CCN(Cc1ccc(Oc3ccc(C(=O)O)cc3)cc1)CC2 [GW873140]
- mean reduction in HIV-1 RNA levels (HIV-1): ~1 log10

Molecule: CCO/N=C(\c1ccc(Br)cc1)C1CCN(C2(C)CCN(C(=O)c3c(C)cc[n+]([O-])c3C)CC2)CC1 [SCH-C]
- mean reduction in HIV-1 RNA levels (HIV-1): ~1 log10

Molecule: COC[C@@H](c1ccc(C(F)(F)F)cc1)N1CCN(C2(C)CCN(C(=O)c3c(C)ncnc3C)CC2)C[C@@H]1C [SCH-D, 1-[(4,6-dimethyl-5-pyrimidinyl)carbonyl]-4-[4-[2-methoxy-1(R)-4-(trifluoromethyl)phenyl]ethyl-3(S)-methyl-1-piperazinyl]-4-methylpiperidine]
- mean reduction in HIV-1 RNA levels (HIV-1): ~1 log10
- CI90 ([1]; SCH-D with UK-427,857 1:1, experiment depicted in FIG. 15B): 0.73
- IC90 ([1]; SCH-D with UK-427,857, 1:1 fixed molar ratio, FIG. 15B, read-out: IC90 of the combination): 31 nM

Molecule: CCCCOCCOc1ccc(-c2ccc3c(c2)/C=C(/C(=O)Nc2ccc([S+]([O-])Cc4cncn4CCC)cc2)CCCN3CC(C)C)cc1 (stereo not drawn) [TAK-652]
- anti-HIV-1 activity in vitro (CCR5; Baba et al., 2005): nanomolar range
- oral bioavailability (CCR5; Baba et al., 2005): orally bioavailable
- tolerability (CCR5; TAK-779: Iizawa et al., 2003, TAK-652: single oral dose, healthy male volunteers): safe and well tolerated

Molecule: Cc1nnc(C(C)C)n1C1CC2CCC(C1)N2CC[C@H](NC(=O)C1CCC(F)(F)CC1)c1ccccc1 (stereo partly drawn) [UK-427,857]
- IC50 [1, 5]: 5.3 nM
- IC90 [1, 5]: 27 nM
- IC90 ([1]; Human immunodeficiency virus 1, inhibitor alone, experiment depicted in FIG. 15A): 21 nM
- IC90 ([1]; Human immunodeficiency virus 1, inhibitor alone, experiment depicted in FIG. 15B): 59 nM
- IC50 ([1]; Human immunodeficiency virus 1, read-out: IC50 of the combination, UK-427,857 with PRO 140, 1:1 fixed molar ratio, total concentration, FIG. 15A): 2.1 nM
- IC90 ([1]; Human immunodeficiency virus 1, read-out: IC90 of the combination, UK-427,857 with PRO 140, 1:1 fixed molar ratio, FIG. 15A): 4.6 nM
- CI90 ([1]; UK-427,857 with PRO 140 1:1, experiment depicted in FIG. 15A): 0.32

Molecule: Cc1ccnc2c1NC(=O)c1cccnc1N2C1CC1 [nevirapine]
- IC50 [2]: 30 nM
- IC90 [2]: 310 nM
- IC50 [3]: 42 nM
- IC90 [3]: 280 nM

Molecule: Cc1cn([C@H]2C[C@H](N=[N+]=[N-])[C@@H](CO)O2)c(=O)[nH]c1=O [zidovudine]
- IC50 [2]: 140 nM
- IC90 [2]: 1900 nM
- IC50 [3]: 86 nM
- IC90 [3]: 2100 nM

Molecule: RANTES: CC-chemokine, natural peptide ligand of CCR5, purchased from R&D Systems
- CI values (50% and 90% inhibition) ([1]; in combination with PRO 140): Similarly potent synergy
- CI50 ([1]; labelled 1st inhibitor with 2nd inhibitor UK-427,857, equimolar): Similarly potent synergy
- Mean CT (Combination Index at IC50 value) [4]: 0.59 ± 0.08
- inhibition of HIV-1 pseudovirus entry (in words) ([2]; inhibitor alone): Neither TAK-779 nor RANTES mediated consistent, high-level inhibition
